From US20260355165A1, “2,3,4,9-TETRAHYDRO-1H-PYRIDO[3,4-B]INDOLE DERIVATIVES AS ESTROGEN RECEPTOR MODULATORS FOR THE TREATMENT OF CANCER” (Olema Pharmaceuticals, Inc., priority 2022, published 2026) come the findings set out here.

The structures appear in SMILES notation.

The first experiment deals with T1, estrogen receptor (Homo sapiens, UniProt P03372).
T1 construct: endogenous in cells; host or cells: ECC-1 cells
T1 sequence (P03372 1-595): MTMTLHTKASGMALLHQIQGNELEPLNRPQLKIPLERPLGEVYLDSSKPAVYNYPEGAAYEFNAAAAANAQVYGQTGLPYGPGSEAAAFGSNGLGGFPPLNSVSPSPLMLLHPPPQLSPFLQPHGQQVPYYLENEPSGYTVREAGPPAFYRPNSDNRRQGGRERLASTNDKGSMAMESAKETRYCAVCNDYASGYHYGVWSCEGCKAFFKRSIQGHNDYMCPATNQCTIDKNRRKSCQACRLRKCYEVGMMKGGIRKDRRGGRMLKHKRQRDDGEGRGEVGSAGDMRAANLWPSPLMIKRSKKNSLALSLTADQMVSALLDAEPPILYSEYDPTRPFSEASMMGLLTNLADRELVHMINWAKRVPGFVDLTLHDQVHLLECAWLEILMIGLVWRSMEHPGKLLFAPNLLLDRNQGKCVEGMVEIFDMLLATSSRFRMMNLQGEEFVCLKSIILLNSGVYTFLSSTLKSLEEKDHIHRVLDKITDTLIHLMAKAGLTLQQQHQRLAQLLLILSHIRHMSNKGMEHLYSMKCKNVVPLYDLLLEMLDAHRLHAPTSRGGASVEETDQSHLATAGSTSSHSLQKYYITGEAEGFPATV
As to the kind of experiment: AP assay (alkaline phosphatase activity in ECC-1 cells), agonist mode (absence of E2) and antagonist mode (presence of 500 pM E2). It counts as cell-based. The conditions noted are these: 3 days, AP activity normalized to 500 pM E2 alone, agonist and antagonist mode combined. As to the method:
ECC-1 cells were trypsinized and resuspended in hormone-depleted media and plated at a density of 15 k cells per well into a 96-well plate for at least 4 hours. Cells were treated with test compounds in the absence of E2 (for agonist mode) or in the presence of 500 pM E2 (for antagonist mode) for 3 days and plates were subsequently frozen at −80 °C. Thawed plates were incubated with a chromogenic substrate of AP, p-nitrophenyl phosphate (Thermo Fisher Scientific), for 40 minutes at 42 °C, and absorbances were read at 405 nm. AP activity was normalized to the activity of 500 pM E2 alone.
The compound numbers correspond to the compound numbers of Table 1 and 2. Compounds having an activity designated as “+” provided estrogen receptor agonism having (i) at least 80% increase in the E2-normalized signal in the AP assay (agonist mode) and (ii) no more than 80% reduction in the E2-normalized signal in the AP assay (antagonist mode). Compounds having an activity designated as “++” provided estrogen receptor antagonism having (i) between 10% and 80% increase in the E2-normalized signal in the AP assay (agonist mode) and (ii) between 10% and 80% reduction in the E2-normalized signal in the AP assay (antagonist mode).
Regarding `C[C@@H]1Cc2c([nH]c3ccccc23)[C@@H](c2c[nH]c3ncc(CN4CC5CC5C4)cc23)N1CC(C)(C)F` (stereo partly drawn) [Compound I-61, (1R,3R)-1-[5-(3-azabicyclo[3.1.0]hexan-3-ylmethyl)-1H-pyrrolo[2,3-b]pyridin-3-yl]-2-(2-fluoro-2-methyl-propyl)-3-methyl-1,3,4,9-tetrahydropyrido[3,4-b]indole], the “Activity (estrogen receptor modulation, e.g., agonism and antagonism)” value (from here on “Activity”) is “+ (estrogen receptor agonism having (i) at least 80% increase in the E2-normalized signal in the AP assay (agonist mode) and (ii) no more than 80% reduction in the E2-normalized signal in the AP assay (antagonist mode))”. The same measure, in the same setting: as for `C[C@@H]1Cc2c([nH]c3ccccc23)[C@@H](c2n[nH]c3cc(CN4CCC45CC(F)(F)C5)ccc23)N1CC(C)(C)F` [Compound I-34, (1S,3R)-1-[6-[(6,6-difluoro-1-azaspiro[3.3]heptan-1-yl)methyl]-1H-indazol-3-yl]-2-(2-fluoro-2-methyl-propyl)-3-methyl-1,3,4,9-tetrahydropyrido[3,4-b]indole], the entry is “+ (estrogen receptor agonism having (i) at least 80% increase in the E2-normalized signal in the AP assay (agonist mode) and (ii) no more than 80% reduction in the E2-normalized signal in the AP assay (antagonist mode))”. The same measure, in the same setting: with `C[C@@H]1Cc2c([nH]c3ccccc23)[C@@H](c2cc3cc(CN4CC(CF)C4)[nH]c3s2)N1CC(C)(C)F` [Compound I-63, 5-[[3-(fluoromethyl)azetidin-1-yl]methyl]-2-[(1S,3R)-2-(2-fluoro-2-methyl-propyl)-3-methyl-1,3,4,9-tetrahydropyrido[3,4-b]indol-1-yl]-6H-thieno[2,3-b]pyrrole] the entry was “++ (estrogen receptor antagonism having (i) between 10% and 80% increase in the E2-normalized signal in the AP assay (agonist mode) and (ii) between 10% and 80% reduction in the E2-normalized signal in the AP assay (antagonist mode))”. As to `C[C@@H]1Cc2c([nH]c3ccccc23)[C@@H](c2cc(F)c3oc(CN4CC(CF)C4)nc3c2)N1CC(C)(C)F` [Compound I-79, 7-fluoro-2-[[3-(fluoromethyl)azetidin-1-yl]methyl]-5-[(1R,3R)-2-(2-fluoro-2-methyl-propyl)-3-methyl-1,3,4,9-tetrahydropyrido[3,4-b]indol-1-yl]-1,3-benzoxazole], the “Activity” value is “+ (estrogen receptor agonism having (i) at least 80% increase in the E2-normalized signal in the AP assay (agonist mode) and (ii) no more than 80% reduction in the E2-normalized signal in the AP assay (antagonist mode))”. On the same count and under the same terms, with `C[C@@H]1Cc2c([nH]c3ccccc23)[C@@H](c2ccc3nc(CN4CC(CF)C4)cn3c2)N1CC(C)(C)F` [Compound I-73, (1R,3R)-1-[2-[[3-(fluoromethyl)azetidin-1-yl]methyl]imidazo[1,2-a]pyridin-6-yl]-2-(2-fluoro-2-methyl-propyl)-3-methyl-1,3,4,9-tetrahydropyrido[3,4-b]indole] the entry was “+ (estrogen receptor agonism having (i) at least 80% increase in the E2-normalized signal in the AP assay (agonist mode) and (ii) no more than 80% reduction in the E2-normalized signal in the AP assay (antagonist mode))”; with `C[C@@H]1Cc2c([nH]c3ccccc23)[C@@H](c2ccc3[nH]c(CN4CC5CC5C4)cc3c2)N1CC(C)(C)F` (stereo partly drawn) [Compound I-43, (1R,3R)-1-[2-(3-azabicyclo[3.1.0]hexan-3-ylmethyl)-1H-indol-5-yl]-2-(2-fluoro-2-methyl-propyl)-3-methyl-1,3,4,9-tetrahydropyrido[3,4-b]indole], “+ (estrogen receptor agonism having (i) at least 80% increase in the E2-normalized signal in the AP assay (agonist mode) and (ii) no more than 80% reduction in the E2-normalized signal in the AP assay (antagonist mode))”; with `C[C@@H]1Cc2c([nH]c3ccccc23)[C@@H](c2n[nH]c3cc(CN4CC(CF)C4)ccc23)N1CC(F)F` [Compound I-36, (1S,3R)-2-(2,2-difluoroethyl)-1-(6-((3-(fluoromethyl)azetidin-1-yl)methyl)-1H-indazol-3-yl)-3-methyl-2,3,4,9-tetrahydro-1H-pyrido[3,4-b]indole], “++ (estrogen receptor antagonism having (i) between 10% and 80% increase in the E2-normalized signal in the AP assay (agonist mode) and (ii) between 10% and 80% reduction in the E2-normalized signal in the AP assay (antagonist mode))”. For the compound `C[C@@H]1Cc2c([nH]c3ccccc23)[C@@H](c2cnc3[nH]c(CN4CC(CF)C4)cc3c2)N1CC(C)(C)F` [Compound I-69, (1R,3R)-1-[2-[[3-(fluoromethyl)azetidin-1-yl]methyl]-1H-pyrrolo[2,3-b]pyridin-5-yl]-2-(2-fluoro-2-methyl-propyl)-3-methyl-1,3,4,9-tetrahydropyrido[3,4-b]indole], the “Activity” value was “++ (estrogen receptor antagonism having (i) between 10% and 80% increase in the E2-normalized signal in the AP assay (agonist mode) and (ii) between 10% and 80% reduction in the E2-normalized signal in the AP assay (antagonist mode))”. On the same count and under the same terms, with `C[C@@H]1Cc2c([nH]c3ccccc23)[C@@H](c2n[nH]c3cc(CN4CC(CF)C4)ccc23)N1CC(F)(F)CO` [Compound I-16, 2,2-difluoro-3-[(1S,3R)-1-[6-[[3-(fluoromethyl)azetidin-1-yl]methyl]-1H-indazol-3-yl]-3-methyl-1,3,4,9-tetrahydropyrido[3,4-b]indol-2-yl]propan-1-ol] the entry was “++ (estrogen receptor antagonism having (i) between 10% and 80% increase in the E2-normalized signal in the AP assay (agonist mode) and (ii) between 10% and 80% reduction in the E2-normalized signal in the AP assay (antagonist mode))”; with `C[C@@H]1Cc2c([nH]c3ccccc23)[C@@H](c2ccc3[nH]c(CO)cc3c2)N1CC(C)(C)F` [Compound I-93, [5-[(1R,3R)-2-(2-fluoro-2-methyl-propyl)-3-methyl-1,3,4,9-tetrahydropyrido[3,4-b]indol-1-yl]-1H-indol-2-yl]methanol], “+ (estrogen receptor agonism having (i) at least 80% increase in the E2-normalized signal in the AP assay (agonist mode) and (ii) no more than 80% reduction in the E2-normalized signal in the AP assay (antagonist mode))”; with `C[C@@H]1Cc2c([nH]c3ccccc23)[C@@H](c2ccc3oc(CN4CC(CF)C4)nc3c2)N1CC(F)(F)CO` [Compound I-80, 2,2-difluoro-3-[(1R,3R)-1-[2-[[3-(fluoromethyl)azetidin-1-yl]methyl]-1,3-benzoxazol-5-yl]-3-methyl-1,3,4,9-tetrahydropyrido[3,4-b]indol-2-yl]propan-1-ol], “+++ (estrogen receptor antagonism (i) with pIC50 greater than 7.5 and at least a 10% reduction in the E2-normalized signal in the AP assay (antagonist mode); and (ii) no more than 10% increase in E2-normalized signal in the AP assay (agonist mode))”. Same read-out and setting: as for `C[C@@H]1Cc2c([nH]c3ccccc23)[C@@H](c2ccc3[nH]c(CN4CC(CC#N)C4)cc3c2)N1CC(C)(C)F` [Compound I-98, 2-[1-[[5-[(1R,3R)-2-(2-fluoro-2-methyl-propyl)-3-methyl-1,3,4,9-tetrahydropyrido[3,4-b]indol-1-yl]-1H-indol-2-yl]methyl]azetidin-3-yl]acetonitrile], the entry is “++ (estrogen receptor antagonism having (i) between 10% and 80% increase in the E2-normalized signal in the AP assay (agonist mode) and (ii) between 10% and 80% reduction in the E2-normalized signal in the AP assay (antagonist mode))”.

The same experiment, now with this note: AP assay, antagonist mode, 500 pM E2, 3 days.
Turning to `C[C@@H]1Cc2c([nH]c3ccccc23)[C@@H](c2ccc3[nH]c(CN4CC(CF)C4)cc3c2)N1CC(F)(F)C(F)(F)F` [Compound I-110, (1R,3R)-1-[2-[[3-(fluoromethyl)azetidin-1-yl]methyl]-1H-indol-5-yl]-3-methyl-2-(2,2,3,3,3-pentafluoropropyl)-1,3,4,9-tetrahydropyrido[3,4-b]indole], the IC50 (as a rule, the concentration that gives 50% inhibition) is less than 398 nM.

Still in this experiment, the particulars now being: agonist mode, absence of E2, 3 days.
In the case of `C[C@@H]1Cc2c([nH]c3ccccc23)[C@@H](c2ccc3[nH]c(CN4CC(CF)C4)cc3c2)N1CC(F)(F)C(F)(F)F` [Compound I-110, (1R,3R)-1-[2-[[3-(fluoromethyl)azetidin-1-yl]methyl]-1H-indol-5-yl]-3-methyl-2-(2,2,3,3,3-pentafluoropropyl)-1,3,4,9-tetrahydropyrido[3,4-b]indole], the “increase in E2-normalized signal in the AP assay (agonist mode)” value is on record as “no more than 10%”.

Staying with this experiment, now noted: antagonist mode, 500 pM E2, 3 days.
Regarding `C[C@@H]1Cc2c([nH]c3ccccc23)[C@@H](c2ccc3[nH]c(CN4CC(CF)C4)cc3c2)N1CC(F)(F)C(F)(F)F` [Compound I-110, (1R,3R)-1-[2-[[3-(fluoromethyl)azetidin-1-yl]methyl]-1H-indol-5-yl]-3-methyl-2-(2,2,3,3,3-pentafluoropropyl)-1,3,4,9-tetrahydropyrido[3,4-b]indole], the “reduction in the E2-normalized signal in the AP assay (antagonist mode)” value is on record as no less than 10%.
